Experimental data reported in PubChem BioAssay (NCI).
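96-well plates; 48 h exposure; 5 concentrations. Endpoints by linear interpolation between flanking doses. Not reached: highest tested concentration assigned. TGI marks complete inhibition of growth.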

What was measured:
Test in all cases: NCI-60 cell line screen, 48 h
CAKI-1 renal = tested on: CAKI-1 renal
NCI-H23 lung = tested on: NCI-H23 lung
SW-620 colon = tested on: SW-620 colon
KM12 colon = tested on: KM12 colon
HS 578T breast = tested on: HS 578T breast
RXF 393 renal = tested on: RXF 393 renal
HOP-62 NSCLC = tested on: HOP-62 NSCLC
MDA-N = tested on: MDA-N
COLO 205 colon = tested on: COLO 205 colon
TK-10 renal = tested on: TK-10 renal
T-47D breast = tested on: T-47D breast
SNB-19 CNS = tested on: SNB-19 CNS
NCI/ADR-RES ovarian = tested on: NCI/ADR-RES ovarian
EKVX NSCLC = tested on: EKVX NSCLC
HCT-15 colon = tested on: HCT-15 colon
OVCAR-3 ovarian = tested on: OVCAR-3 ovarian
MDA-MB-231 breast = tested on: MDA-MB-231 breast
OVCAR-4 ovarian = tested on: OVCAR-4 ovarian
SF-539 CNS = tested on: SF-539 CNS
ACHN renal = tested on: ACHN renal

Structure (SMILES) | TGI (CAKI-1 renal) [µM] | TGI (NCI-H23 lung) [µM] | TGI (SW-620 colon) [µM] | TGI (KM12 colon) [µM] | TGI (HS 578T breast) [µM] | TGI (RXF 393 renal) [µM] | TGI (HOP-62 NSCLC) [µM] | TGI (MDA-N) [µM] | TGI (COLO 205 colon) [µM] | TGI (TK-10 renal) [µM] | TGI (T-47D breast) [µM] | TGI (SNB-19 CNS) [µM] | TGI (NCI/ADR-RES ovarian) [µM] | TGI (EKVX NSCLC) [µM] | TGI (HCT-15 colon) [µM] | TGI (OVCAR-3 ovarian) [µM] | TGI (MDA-MB-231 breast) [µM] | TGI (OVCAR-4 ovarian) [µM] | TGI (SF-539 CNS) [µM] | TGI (ACHN renal) [µM]
COc1cccc(Cc2cc(=O)c3ccc(C)nc3[nH]2)c1 | > 100 | > 100 | > 100 | > 100 | > 100 | > 100 | > 100 | > 100 | > 100 | > 100 | > 100 | > 100 | > 100 | > 100 | > 100 | > 100 | > 100 | – | – | –
COc1cc(N(Cc2ccc3nc(OC)c(OC)nc3c2)Cc2ccc3nc(OC)c(OC)nc3c2)cc(OC)c1OC | > 50 | > 50 | > 50 | > 50 | 27.2 | 41.6 | > 50 | > 50 | > 50 | > 50 | > 50 | 47.7 | > 50 | > 50 | > 50 | > 50 | – | > 50 | > 50 | > 50
O=c1c2cc([N+](=O)[O-])ccc2nc2n1CCCCC2 | > 100 | > 100 | > 100 | > 100 | > 100 | > 100 | > 100 | > 100 | > 100 | > 100 | > 100 | – | > 100 | > 100 | > 100 | > 100 | > 100 | > 100 | > 100 | > 100
CC(=O)OCC(OC(C)=O)C(OC(C)=O)C(OC(C)=O)C(C=NN(C(C)=O)S(=O)(=O)c1ccc(/C=C2\NC(=O)NC2=O)cc1)OC(C)=O (stereo unspecified) | > 100 | > 100 | > 100 | > 100 | > 100 | > 100 | > 100 | > 100 | > 100 | > 100 | > 100 | > 100 | > 100 | > 100 | > 100 | > 100 | > 100 | > 100 | – | > 100
COCn1c(C)c(C)c2c(=O)oc(N(C)C)nc21 | > 100 | > 100 | > 100 | > 100 | > 100 | > 100 | > 100 | > 100 | > 100 | > 100 | > 100 | > 100 | > 100 | > 100 | > 100 | – | > 100 | > 100 | > 100 | > 100
COc1cc(S(=O)(=O)Nc2nc(-c3ccc(N4C(=O)/C(=C/c5ccccc5[N+](=O)[O-])N=C4c4ccccc4)cc3)cs2)ccc1Cl | > 100 | > 100 | > 100 | > 100 | – | > 100 | > 100 | > 100 | > 100 | > 100 | > 100 | > 100 | > 100 | – | > 100 | > 100 | 42.2 | > 100 | > 100 | > 100
c1ccc(C(=NNc2cnc3ccccc3n2)c2ccccn2)cc1 | 12.2 | 14.1 | 22.5 | 20.5 | 37.9 | 21.5 | 20 | > 52.2 | 24.6 | – | 33.5 | > 39.6 | 2.15 | 13.4 | 14.5 | 12.2 | 26.9 | 28 | 17.4 | 12.6
O=[N+]([O-])c1cc(Cl)cc2cc(Br)cnc12 | – | > 31.6 | > 31.6 | – | 28.3 | > 31.6 | > 31.6 | > 31.6 | > 31.6 | > 31.6 | > 31.6 | > 31.6 | > 31.6 | > 31.6 | > 31.6 | > 31.6 | > 31.6 | > 31.6 | > 31.6 | > 31.6
Cc1ccc(-c2nc(-c3cnccn3)n(C3OC(CO)C(O)C(O)C3O)n2)cc1 (stereo unspecified) | – | > 100 | > 100 | > 100 | – | > 100 | > 100 | > 100 | > 100 | > 100 | > 100 | > 100 | > 100 | > 100 | > 100 | > 100 | > 100 | > 100 | > 100 | –
CC(C)=CCN1c2ccc(Cl)cc2NC(=O)CC1C (stereo unspecified) | 43.8 | 74.9 | > 100 | 68.6 | 72.1 | 76 | 61.7 | 51.7 | 56.9 | 87.7 | > 100 | > 100 | – | 83.5 | > 100 | 36 | 45.7 | 87.9 | 45.4 | 58.3
COC(=O)/C=C\C(C#N)(C#N)N=Cc1ccc(Br)s1 | 5.94 | 46.9 | 5.53 | 32.6 | > 85.5 | 4.87 | 31.8 | 24.4 | 6.02 | 6.65 | > 30.6 | 21.9 | 45.2 | 26.4 | 6.63 | 23.3 | 4.51 | 16.3 | – | 6.1
COC(=O)c1c2c(cc3c1CC1(Cc4cc5c(cc4C1=O)CCC5)C3)CCC2 (stereo unspecified) | > 100 | > 100 | > 100 | > 100 | > 100 | – | > 100 | > 100 | > 100 | > 100 | > 100 | > 100 | – | > 100 | > 100 | > 100 | > 100 | > 100 | > 100 | > 100
